For 32 compounds, RP-LC retention time results are on record in the METLIN SMRT retention time set (Domingo-Almenara et al. 2019).

This data set is described as follows: gradient 5% acetonitrile 3 min, to 50% in 2 min, to 85% in 15 min, held 3 min, 100 µL/min. The settings on record: column: Zorbax Extend-C18 2.1 x 50 mm; eluents: water / acetonitrile, 0.1% formic acid. In short, it runs like this:
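Values are retention times taken from adduct peaks that software picked and an analyst inspected. The pure standards were run as mixtures of ~100 molecules on HPLC linked to a quadrupole time-of-flight mass spectrometer, in positive and negative ionization mode. A Zorbax Extend-C18 column (2.1 × 50 mm, 1.8 μm) was used at 100 μL/min with water and acetonitrile, each including 0.1% formic acid.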
`CCOC(=O)c1csc(NC(=O)CC[C@H]2NC(=O)c3ccccc3NC2=O)n1` showed an RP-LC retention time of 648 s.
The result for `CCc1ccc(C(=O)Nc2nnc(SCc3nnc(-c4ccccc4)o3)s2)cc1` reads 1000 s.
The result for `Cc1nc(-c2csc(S(=O)(=O)N3CCC(C(=O)N4CCc5ccccc5C4)CC3)c2)no1` reads 1050 s; that for `Cc1cccc(Cn2nc3n(Cc4ccc(F)cc4)c(=O)c4nn(C)cc4n3c2=O)c1`, 940 s.
Compound `COc1ccc(NC(=O)N2CCCC2c2nc(-c3ccccc3OC)no2)cc1Cl` (configuration not stated) displayed an RP-LC retention time of 892 s.
Turning to `COc1cc2c(cc1CNC(=O)c1cccs1)OCCCO2`, the RP-LC retention time stood at 780 s.
The compound `COCC(=O)N(C)CCc1noc(-c2ccc(C(=O)N3CCCC3)cc2)n1` had an RP-LC retention time of 626 s.
In turn, `Cc1oc(C2CCN(S(=O)(=O)c3ccccc3F)CC2)nc1C(=O)N1CCOCC1` gave an RP-LC retention time of 776 s.
`Cc1ccc(CNC(=O)C2CCN(S(=O)(=O)c3ccc(-c4noc(C5CC5)n4)cc3)CC2)o1`: the RP-LC retention time is 938 s.
`CC1CCN(c2cc(-n3cnc(C(=O)NC4CCCCC4)c3)ncn2)CC1` gave an RP-LC retention time of 1030 s.
Take `Cc1nc2cc(-c3noc(-c4ccc(Cl)cc4)n3)ccc2o1`: the RP-LC retention time was 1210 s.
With `COc1ccc(-c2c(C)noc2NC(C)=O)cc1S(=O)(=O)Nc1cc(Cl)ccc1C`, the RP-LC retention time turned out to be 792 s.
As to `CCC(CO)NCC(O)COCc1ccc(Cl)cc1` (configuration not stated), the RP-LC retention time is 552 s.
Regarding `CN1CCN(c2nc(C(=O)NC3CCN(c4ccc(=O)n(C)n4)CC3)cs2)CC1`, the RP-LC retention time was 566 s.
Consider `Cn1cc(CN2CCC(C(=O)N3CCN(c4ccccc4F)CC3)CC2)c2cc(Cl)ccc21`, for which the RP-LC retention time was 794 s.
With `CCOC(=O)c1c(C)[nH]c(C(=O)N2CCCC(C(=O)NCCN3CCCCC3)C2)c1C` (configuration not stated) the figure was 620 s; with `O=C(NCCN1CCCC1)c1nc(Nc2ccc(F)cc2)c2ccccc2n1`, 689 s; with `Cc1nn(CCCC(=O)NCCN2CCCC2)c(=O)c2c(-n3cccc3)n(-c3ccccc3)nc12`, 666 s.
For the compound `CCc1nnc([C@@H]2CC(F)(F)CN2C(=O)c2n[nH]c3ccccc23)o1`, the RP-LC retention time came out at 734 s.
`COCCC(=O)N1CCc2c(c(-c3nc(C4CC4)no3)nn2C)C1` had an RP-LC retention time of 670 s.
On to `CC1CCN(S(=O)(=O)c2ccc3c(c2)CCCC(=O)N3CC(=O)NC2CCCC2)CC1`, for which the RP-LC retention time turned out to be 874 s.
In turn, `COc1ccc(-c2cn3c(CC(=O)N(Cc4ccco4)C4CCCC4)csc3n2)cc1OC` had an RP-LC retention time of 841 s.
Turning to `CCC(C)NC(=O)c1cc(C)nc2ccc(Cl)cc12` (configuration not stated), the RP-LC retention time came out at 770 s.
Consider `O=C(Cn1cnc2c(sc3nc(-c4ccccc4)ccc32)c1=O)Nc1ccc(Cl)cc1F`, for which the RP-LC retention time was determined as 1110 s.
The result for `O=C(CCCn1nc(-c2cccs2)ccc1=O)Nc1cccc2nsnc12` reads 728 s; that for `Cc1nc(N2CCC(C(=O)Nc3cc(F)ccc3F)CC2)c2c(C)c(C)oc2n1`, 972 s.
Compound `COc1cccc(-c2noc(C3CCCN3C(=O)Nc3ccc(OC)cc3OC)n2)c1` (configuration not stated) had an RP-LC retention time of 941 s.
For the compound `COc1cc(OC)cc(C(=O)Nc2nc(-c3ccc4c(c3)N(C)C(=O)C(C)O4)cs2)c1` (configuration not stated), the RP-LC retention time is 1040 s.
The result for `CCOC(=O)c1ccc(NC(=O)c2c(C)oc3nc(C)nc(N4CCCC4)c23)cc1` reads 848 s; that for `CC(C)CNC(=O)N1CCN(Cc2nc3cc(C(=O)N(C)C)ccc3o2)CC1`, 579 s; that for `CCCOc1nc2ccccc2nc1N1CCCC(C(=O)NCc2cccc(C)c2)C1` (configuration not stated), 1220 s.
Consider `NC(=O)C1CCN(C(=O)c2cc(-n3cnnn3)ccc2Cl)CC1`, for which the RP-LC retention time turned out to be 592 s.
